Laboratory results published in patent US20040087612A1, “Method of increasing lacrimal gland tearing by topical administration of tacrolimus” (priority 2002, published 2004).

Tested on: dogs with naturally occurring keratoconjunctivitis sicca
Experiment: Schirmer tear quantification in dogs treated topically with tacrolimus suspension
Type: in vivo, dog
Settings: topical administration to the eye
From the text: In the present invention, tacrolimus is typically administered topically as an aqueous ophthalmic suspension that can be in the form of drops or an ointment. While the particular mixture and efficacious concentration of tacrolimus can be varied, one such suspension used in the treatment of a number of dogs included the following: i) Approximately 0.02 percent weight/volume tacrolimus crystals, ii) Approximately 0.2 percent weight/volume hydroxypropyl methylcellulose, iii) Approximately 0.4 percent weight/volume lactose, and iv) Sterile, deionized water mixed with the first three ingredients in an amount sufficient to achieve the above-noted concentrations. The following examples illustrate the effectiveness of the treatment method of the present invention. Specifically, eleven different dogs of varying breeds and ages were treated using the above solution for treatment periods ranging from 20-84 days. The eleven dogs had naturally occurring keratoconjunctivitis sicca. The subject dogs received one drop of the above-described tacrolimus-based suspension topically in the eye, twice a day. Prior to therapy, tear production was measured using standard Schirmer tear quantification. Corneal fibrosis, vascularization and pigmentation were measured using slit lamp biomicroscopy and fundus reflection during indirect ophthalmoscopy. […]

## C=CC[C@@H]1/C=C(\C)C[C@H](C)C[C@H](OC)[C@H]2O[C@@](O)(C(=O)C(=O)N3CCCC[C@H]3C(=O)O[C@H](/C(C)=C/[C@@H]3CC[C@@H](O)[C@H](OC)C3)[C@H](C)[C@@H](O)CC1=O)[C@H](C)C[C@@H]2OC [tacrolimus, Tacrolimus]
  effect on lacrimal gland tearing: increases lacrimal gland tearing
